# Source: publication PMC12040169 (PLOS Biology, 2025)
# Experiment: in vitro
# Conditions: human, hela cells, % viability
row,Structure (SMILES),"viability at 28.5 h, 10 µM"
1,Cn1cc(N2CCC(NC(=O)c3ccc(C#N)cc3)C2=O)cn1 (stereo not shown) [CBK305182],94%
2,COc1ccc(C=CC(=O)N(C)c2ccccc2C(=O)O)cc1 [CBK296135],106%
3,O=C(Cc1ccccc1)Nc1ccc(C(=O)O)cc1NC(=O)Cc1ccccc1 [CBK287049],108%
4,COc1ccc(C(C)C)cc1-c1cncc(NC(C)CCCC(C)(C)O)n1 (stereo not shown) [CBK065521],93.3%
5,CC(=O)Nc1ccc(S(=O)(=O)N2CCN(C(=O)COc3ccc(Br)cc3)CC2)cc1 [CBK264234],94.1%
6,COc1cc(CNc2cc(-c3cccc4oc5ccccc5c34)ncn2)cc(OC)c1OC [CBK091177],90.3%
7,CN1CCN(CCOC(=O)N2CCN(c3cccc(C(F)(F)F)c3)CC2)CC1 [CBK115940C],103%
8,NC(=O)c1c(NC(=S)NC(NC(=O)c2ccccc2)C(Cl)(Cl)Cl)sc2c1CCCC2 (stereo not shown) [CBK261048],90.6%
9,Cc1nc(N)c(CNC2CCCCC2)c(O)n1 [CBK019809],112%
10,CC(C)(C)NC(=O)CN1C(=O)N2CCCN=C2c2ccccc21 [CBK284404],89.7%
11,CC(C)CN(Cc1ccc2c(c1)OCO2)C(=O)NCc1ccc(Cl)c(Cl)c1 [CBK159069],95.3%
12,Cc1nnc(NS(=O)(=O)c2ccc(Br)cc2)s1 [CBK068266],101%
13,CCN(CC)C(=O)CNS(=O)(=O)c1ccc(C)cc1 [CBK034491],103%
14,Cc1ccc(NC(=O)Nc2ccc3cc(Br)cnc3n2)c(C)c1 [CBK063269],85.8%
15,COc1ncccc1C(=O)N1CCc2ccccc21 [CBK200402],91.5%
16,Cc1nc2ccccc2nc1CSc1nnc(Cc2ccccc2)n1-c1ccccc1 [CBK268360],104%
17,Cc1ccc2c(c1)C(=O)CC1(CCC3C(C(=O)NC4CCCC4)C31)O2 (stereo not shown) [CBK282716],83.4%
18,N#CCCn1cc(C(=O)N2CCCCC2)c(-c2ccccc2)n1 [CBK305931],100%
19,CCOC(=O)Cn1[nH]c(COC(C)(C)C)c(Cc2c(Cl)cccc2Cl)c1=O [CBK103551],114%
20,COc1cccc(-c2ccc(NC(=O)CCC3C(=O)Nc4ccccc43)cc2)c1 (stereo not shown) [CBK285851],116%
21,O=C(O)CSc1cccc2cccnc12 [CBK126918],95%
22,Cc1cccc(C)c1NC(=O)CSc1nnc(-c2cccnc2)n1Cc1ccccc1 [CBK265620],114%

row,Structure (SMILES),"viability at 28.5 h, 10 µM"
1,CCN(CC)CCC(=O)N1CC2(CCN(C(=O)OCc3ccccc3)CC2)c2ccccc21 [CBK122479],106%
2,Cc1nn(C)cc1S(=O)(=O)N1CCCC(c2cccc(Cc3ccccc3Cl)n2)C1 (stereo not shown) [CBK286127],106%
3,CC1CCc2c(sc(NC(=O)CCN3C(=O)c4ccccc4C3=O)c2C(N)=O)C1 (stereo not shown) [CBK263667],94.4%
4,C[N+](C)(C)CCCCOC(c1ccccc1)c1ccccc1 [CBK261076I],94.1%
5,COc1ccc(S(=O)(=O)N2CCC(C(=O)O)CC2)cc1C(=O)O [CBK092181],91.4%
6,Cn1c(CCNC(=O)c2cccs2)nc2cc([N+](=O)[O-])ccc21 [CBK268511],83%
7,c1cnc(N2CCN(CC3CC3)CC2)c(OCCN2CCOCC2)n1 [CBK082909],87.2%
8,CSCCC(=O)Nc1ccc2c(ccn2Cc2ccccc2)c1 [CBK159732],69.4%
9,Fc1ccc(CCNC(=S)NC2CCCC2)cc1 [CBK266175],99.9%
10,COC(=O)c1c(NC(=O)COc2ccccc2Cl)sc2c1CCC(c1ccccc1)C2 (stereo not shown) [CBK265456],90.3%
11,O=C(CO)N1CC2(CCN(CCC(c3ccccc3)c3ccccc3)CC2)c2ccccc21 [CBK131513],106%
12,COc1nc2ccccc2nc1CCC(=O)NC(C)c1ccccc1 (stereo not shown) [CBK270065],100%
13,CCOC(=O)c1cnc(O/N=C(\N)c2ccc(C(C)(C)C)cc2)nc1C(F)(F)F [CBK022142],103%
14,CC(C)c1ccc(Cc2cnc(NC(=O)c3cc(Br)cs3)s2)cc1 [CBK300503],88.7%
15,COc1ccc(CN2C(=O)CO[C@H]3CN(c4nccc(C)n4)C[C@H]32)cc1 [CBK289056],86.1%
16,O=C(c1ccccc1)c1ccc(S(=O)(=O)N2CCCN(Cc3c[nH]nc3-c3ccccc3)CC2)cc1 [CBK062773],85.1%
17,Cc1ccc(CN2CCCC(n3c(=O)oc4ccccc43)C2)o1 (stereo not shown) [CBK284871],95.6%
18,O=C1N[C@@]2(CC3CCC2CC3C(=O)N2CCCC2)Nc2ccccc21 (stereo partly shown) [CBK284449],91.8%
19,O=C(Cc1cccnc1)N1Cc2ccccc2C1 [CBK200320],90.5%
20,Cn1cc([C@H]2C[C@@H](O)[C@@H](CO)O2)c(=O)[nH]c1=O [CBK201171],88.9%
21,O=C(NCCN1CCOCC1)c1cc(-n2cnnc2)ccc1Cl [CBK268023],97.1%
22,O=C(Cn1nnc(-c2ccccc2Cl)n1)N/N=C/c1cn(Cc2ccc(Cl)cc2)c2ccccc12 [CBK262333],107%

row,Structure (SMILES),"viability at 28.5 h, 10 µM"
1,CC(=O)Nc1ccc(Nc2ncnc3scc(-c4ccccc4)c23)cc1 [CBK264930],93.6%
2,CN(C)S(=O)(=O)N(C)c1ccc(C(=O)O)cc1 [CBK287244],105%
3,Cc1ccc(C(=O)C(NC(=O)c2cccs2)Nc2ccc(S(N)(=O)=O)cc2)cc1 (stereo not shown) [CBK264897],89%
4,CCCn1ncc(CN2CCC3(CC2)CC(C(=O)O)N(C(C)=O)C3)c1C (stereo not shown) [CBK306612],86.7%
5,CCCNC(=O)c1ccc(NC(=O)NC(CC)c2ccnn2C)c(C)c1 (stereo not shown) [CBK307608],104%
6,COC(=O)c1ccc(NC(=O)CSc2nnc(-c3ccc(C)cc3)n2N)cc1 [CBK266114],89.9%
7,COc1cccc(C(=O)Nc2ccc(O)cc2C(=O)O)c1 [CBK268662],104%
8,O=C(Nc1ccc2oc(-c3cccnc3)nc2c1)c1ccc(N2CCOCC2)c([N+](=O)[O-])c1 [CBK268664],100%
9,CC1(C)CC(=O)c2sc(NC(=O)C3COc4ccccc4O3)nc2C1 (stereo not shown) [CBK144104],112%
10,Cc1ccc2cc(COC(=O)c3ccc(N4CCOCC4)nc3)c(Cl)nc2c1 [CBK295336],90.5%
11,COC(=O)c1c(NC(=O)C(=O)NCc2ccccn2)sc2c1CCCC2 [CBK269505],95.2%
12,CC(C)c1ccc(CN2CCC3(CC2)CN(CCO)c2ccccc23)cc1 [CBK122708],93.4%
13,O=C(CCc1cccnc1)NC1CCCC1 [CBK200239],97.9%
14,CC(CNC1CCCC1)C(O)(c1ccccc1)c1ccccc1 (stereo not shown) [CBK012237C],101%
15,CCCC(=O)c1ccc(S(=O)(=O)N2CCN(Cc3cccc(F)c3C)CC2)cc1 [CBK063152],88.4%
16,C1C/C(=N/N=C2\CCCc3nonc32)c2nonc2C1 [CBK006721],93.9%
17,O=C(CCc1ccccc1)N/N=C/c1cc2c(cc1[N+](=O)[O-])OCO2 [CBK261221],111%
18,N=C(N)SCP(=O)(c1ccccc1)c1ccccc1 [CBK260990],99.3%
19,CCOC(=O)N1CCCN(C(=O)OCC)CC1 [CBK034324],101%
20,CC(=O)NC(CCCN=C(N)N)C(=O)O (stereo not shown) [CBK218726],107%
21,CNC(=O)C1(Cc2ccc(-c3ccccc3)cc2)CCN(C(=O)C2CCCCC2)CC1 [CBK285762],113%
22,CC1CCCCC1NC(=O)Cn1ncn2c(cc3ccsc32)c1=O (stereo not shown) [CBK284196],91.8%

row,Structure (SMILES),"viability at 28.5 h, 10 µM"
1,COCCCNC(=O)C1CCCN(c2nc3c(-c4ccccc4)csc3c(=O)[nH]2)C1 (stereo not shown) [CBK215498],94%
2,COc1cc2c(cc1OC)C(C)N(C(=O)CCC(=O)O)CC2 (stereo not shown) [CBK269873],92.5%
3,CC1CCc2nc(NS(=O)(=O)c3ccccc3)sc2C1 (stereo not shown) [CBK026915],110%
4,COc1ccc(C(NC(=O)C2CCN(Cc3c[nH]c4ccccc34)CC2)c2ccccn2)cc1 (stereo not shown) [CBK148033],121%
5,Cc1ccc(Oc2c([N+](=O)[O-])c(C)nn2C)c(Br)c1 [CBK000283],90.6%
6,Cc1csc2c(NC(C)C)ncnc12 [CBK017059],95.7%
7,O=C(O)C1CSC(c2ccc(-c3cccc(Cl)c3)o2)N1 (stereo not shown) [CBK286997],97.5%
8,COc1cc(Nc2cncc(-c3ccc(O)cc3)n2)c(Cl)cc1C(=O)NCC(F)(F)F [CBK126470],82.9%
9,CC(=O)NS(=O)(=O)c1ccc(NC(=N)Nc2nc(C)cc(C)n2)cc1 [CBK263117C],90.1%
10,CCc1nnc(NC(=O)CSc2ncnc3c2oc2ccccc23)s1 [CBK287392],90.7%
11,CCOC(=O)c1cnc2ccc(OC)cc2c1Nc1ccc(OC)cc1 [CBK095337],93.7%
12,O=C1OC[C@@H](c2ccccc2)N1C(=O)[C@@H]1CN(Cc2ccccc2)C[C@H]1c1cc2ccccc2o1 [CBK022599C],111%
13,COC(=O)[C@H]1CN(C(=O)CN2CCCC2=O)C[C@@H]1c1ccccc1F [CBK283518],89.2%
14,C[C@@H](Cn1nc2c(cc1=O)CCCC2)NC(=O)c1ccco1 [CBK284559],92.2%
15,Cc1ccc(CCP(=O)(O)CN2CCOCC2)cn1 [CBK022176],109%
16,COc1cccc(-c2nccc3ccn(CC(=O)N4CC=CCC4)c23)c1 [CBK284806],104%
17,FC(F)(F)c1nc2ccccc2nc1SCc1cccs1 [CBK103728],105%
18,CC(=O)N1C[C@@H]2CCCCN(CCOc3ccccc3)[C@@H]2C1 [CBK285494],107%
19,CCc1ccc(OCC(=O)NC(=S)Nc2cccc3nsnc23)cc1 [CBK267173],100%
20,Cc1cc(C)nc(N2CCC(CC(=O)N3CCN(C4CCCC4)CC3)CC2)n1 [CBK285957],97.6%

# Same assay, conditions: human, hela cells, % viability, bulk resorufin, single well
row,Structure (SMILES),"viability at 28.5 h, 10 µM"
1,CN(C)C(=O)c1ccc(Cn2nc(C(=O)Nc3nccs3)c3ccccc32)cc1 [CBK047701],95.4%
2,O=C(Nc1ccccc1)Nc1cnns1 [CBK028557],102%
